Data taken from the NIST ThermoML archive (doi:10.1016/j.tca.2018.05.009).
Where “and” joins values, the source holds several entries; their conditions need not be identical. Identical values can stand only once.

Conditions: Liquid, Transpiration method

CC(=O)C(=O)O [2-oxopropanoic acid]
Conditions	vapor or sublimation pressure
308.2 K	0.2899 kPa
313.3 K	0.3753 kPa and 0.3771 kPa
315.9 K	0.434 kPa
316.8 K	0.45 kPa
318.3 K	0.509 kPa
320.9 K	0.599 kPa and 0.597 kPa
325.8 K	0.798 kPa
330.8 K	1.092 kPa
333.2 K	1.274 kPa
336.4 K	1.519 kPa

COC(=O)C(C)=O [methyl 2-oxopropanoate]
Conditions	vapor or sublimation pressure
279.4 K	0.177 kPa and 0.1749 kPa
280.9 K	0.1942 kPa
282.4 K	0.2279 kPa
283.8 K	0.2536 kPa
286.2 K	0.2982 kPa and 0.293 kPa
287 K	0.3042 kPa
289.2 K	0.3569 kPa
291 K	0.426 kPa
294.9 K	0.527 kPa
298.9 K	0.706 kPa
302.9 K	0.919 kPa
307.8 K	1.227 kPa
